Drawing on patent US10787450B2 (BRISTOL-MYERS SQUIBB COMPANY, priority 2016, dated 2020), this text covers IC50 for 22 molecules.

Some results are limits rather than exact numbers.

Chain of ROCK2 (O75116 whole entry, species assumed): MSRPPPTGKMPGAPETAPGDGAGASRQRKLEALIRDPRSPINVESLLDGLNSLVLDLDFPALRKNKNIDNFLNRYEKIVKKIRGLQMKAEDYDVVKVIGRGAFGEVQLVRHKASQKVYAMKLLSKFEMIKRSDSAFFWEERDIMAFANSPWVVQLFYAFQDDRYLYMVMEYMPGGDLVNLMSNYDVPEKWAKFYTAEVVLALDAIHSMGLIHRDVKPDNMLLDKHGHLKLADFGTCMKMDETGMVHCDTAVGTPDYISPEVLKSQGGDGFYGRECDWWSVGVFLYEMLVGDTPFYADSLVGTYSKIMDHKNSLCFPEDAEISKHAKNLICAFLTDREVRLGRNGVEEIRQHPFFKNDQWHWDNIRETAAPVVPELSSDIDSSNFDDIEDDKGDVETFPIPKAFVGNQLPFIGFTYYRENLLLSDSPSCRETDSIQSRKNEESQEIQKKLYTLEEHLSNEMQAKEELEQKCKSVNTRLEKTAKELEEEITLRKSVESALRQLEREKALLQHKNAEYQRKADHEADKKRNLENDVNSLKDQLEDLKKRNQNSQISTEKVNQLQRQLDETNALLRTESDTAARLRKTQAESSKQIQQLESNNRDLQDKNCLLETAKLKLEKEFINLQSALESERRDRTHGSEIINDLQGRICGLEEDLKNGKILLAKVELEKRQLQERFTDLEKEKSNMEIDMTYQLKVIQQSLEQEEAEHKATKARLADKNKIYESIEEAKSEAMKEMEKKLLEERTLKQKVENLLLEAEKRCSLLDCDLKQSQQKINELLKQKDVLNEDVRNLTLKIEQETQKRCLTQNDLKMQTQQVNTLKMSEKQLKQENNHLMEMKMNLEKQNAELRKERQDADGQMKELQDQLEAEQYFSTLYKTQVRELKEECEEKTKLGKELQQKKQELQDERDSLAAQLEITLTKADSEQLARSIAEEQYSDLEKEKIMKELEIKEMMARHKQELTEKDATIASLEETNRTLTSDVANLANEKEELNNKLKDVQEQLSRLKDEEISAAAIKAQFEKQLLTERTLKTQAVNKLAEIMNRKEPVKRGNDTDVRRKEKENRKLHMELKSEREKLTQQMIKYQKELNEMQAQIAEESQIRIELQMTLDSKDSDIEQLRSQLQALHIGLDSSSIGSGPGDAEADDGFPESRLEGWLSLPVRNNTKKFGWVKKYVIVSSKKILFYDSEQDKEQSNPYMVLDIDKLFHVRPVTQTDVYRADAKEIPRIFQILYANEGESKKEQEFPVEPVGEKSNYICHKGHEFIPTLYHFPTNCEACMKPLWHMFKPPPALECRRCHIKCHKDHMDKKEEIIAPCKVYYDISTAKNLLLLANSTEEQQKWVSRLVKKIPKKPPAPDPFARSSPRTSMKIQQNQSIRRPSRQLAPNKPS

The experiment concerns the target ROCK2 (Homo sapiens (Human), UniProt O75116). As to the kind of experiment: ROCK2 kinase inhibition assay (FITC peptide substrate, LABCHIP 3000 Reader). The class given is biochemical. The following applies: 5 μM ATP, 1.5 μM peptide substrate. The protocol:
The effectiveness of compounds of the present invention as ROCK inhibitors can be determined in a 30 μL assay containing 20 mM HEPES, pH 7.5, 20 mM MgCl2, 0.015% Brij-35, 4 mM DTT, 5 μM ATP and 1.5 μM peptide substrate (FITC-AHA-AKRRRLSSLRA-OH) (SEQ ID NO. 1). Compounds were dissolved in DMSO so that the final concentration of DMSO was <2%, and the reaction was initiated with Rho kinase variants. After incubation, the reaction was terminated by the addition of EDTA and the phosphorylated and non-phosphorylated peptides separated using a LABCHIP® 3000 Reader (Caliper Life Sciences). […] Compounds were tested in dose-response format, and the inhibition of kinase activity was calculated at each concentration of compound. The inhibition data were fit using a curve-fitting program to determine the IC50; i.e., the concentration of compound required to inhibit 50% of kinase activity.
Representative examples were tested in the ROCK2 assay described above and found having ROCK2 inhibitory activity.
As usually defined, the IC50 is the concentration that gives 50% inhibition. `O=C1N(c2ccc(-c3cn[nH]c3)cc2)CC2(CCOCC2)N1Cc1ccc(Cl)c(Cl)c1` [Example 19, 3-(4-(1H-pyrazol-4-yl)phenyl)-1-(3,4-dichlorobenzyl)-8-oxa-1,3-diazaspiro[4.5]decan-2-one] showed an IC50 of 30 to 250 nM.

Turning to `COc1cccc(NC2C(=O)N(c3ncc(-c4cn[nH]c4)c(OC)n3)CC23CCN(C(=O)c2cnn4ccccc24)CC3)c1` (stereo not shown) [Example 243, 2-(4-methoxy-5-(1H-pyrazol-4-yl)pyrimidin-2-yl)-4-((3-methoxyphenyl)amino)-8-(pyrazolo[1,5-a]pyridine-3-carbonyl)-2,8-diazaspiro[4.5]decan-3-one], the IC50 is 250 to 3000 nM. With `COc1cccc(CN2C(=O)N(c3ccc(-c4cn[nH]c4)cc3)CC23CCN(CCC(F)(F)F)CC3)c1` [Example 121, 3-(4-(1H-pyrazol-4-yl)phenyl)-1-(3-methoxybenzyl)-8-(3,3,3-trifluoropropyl)-1,3,8-triazaspiro[4.5]decan-2-one], the IC50 was less than 3 nM. With `CCc1nc(N2CC3(CCN(CC(F)F)CC3)N(Cc3cc(F)cc(OC)c3)C2=O)ccc1-c1cn[nH]c1` [Example 129, 8-(2,2-difluoroethyl)-3-(6-ethyl-5-(1H-pyrazol-4-yl)pyridin-2-yl)-1-(3-fluoro-5-methoxybenzyl)-1,3,8-triazaspiro[4.5]decan-2-one] the figure was 3 to 30 nM; with `CCN(C)C(=O)c1cccc(CN2C(=O)N(c3ccc(-c4cn[nH]c4)cc3)CC23CCOCC3)c1` [Example 41, 3-((3-(4-(1H-pyrazol-4-yl)phenyl)-2-oxo-8-oxa-1,3-diazaspiro[4.5]decan-1-yl)methyl)-N-ethyl-N-methylbenzamide], 30 to 250 nM.

Regarding `COc1nc(N2CC3(CCN(C(=O)CO)CC3)N(Cc3cccc(F)c3C)C2=O)ccc1-c1cn[nH]c1` [Example 229, 1-(3-fluoro-2-methylbenzyl)-8-(2-hydroxyacetyl)-3-(6-methoxy-5-(1H-pyrazol-4-yl)pyridin-2-yl)-1,3,8-triazaspiro[4.5]decan-2-one], the IC50 is less than 3 nM. `COc1cccc(NC2C(=O)N(c3ccc(-c4cn[nH]c4)cc3)CC23CN(C(=O)OC(C)(C)C)C3)c1` (stereo not shown) [Example 240, tert-butyl 6-(4-(1H-pyrazol-4-yl)phenyl)-8-((3-methoxyphenyl)amino)-7-oxo-2,6-diazaspiro[3.4]octane-2-carboxylate] came in with an IC50 of 30 to 250 nM. On to `O=C1N(c2ccc(-c3cn[nH]c3)cc2)CC2(CCNCC2)N1Cc1cc(F)cc(F)c1` [Example 68], for which the IC50 fell in the range of 3 to 30 nM. Molecule `COc1cccc(CN2C(=O)N(c3ccc(-c4cn[nH]c4)c(OC)n3)CC23CCN(C(=O)CN(C)C)CC3)c1` [Example 218, 8-(2-(dimethylamino)acetyl)-3-(6-methoxy-5-(1H-pyrazol-4-yl)pyridin-2-yl)-1-(3-methoxybenzyl)-1,3,8-triazaspiro[4.5]decan-2-one] showed an IC50 of less than 3 nM. As for `CCc1nc(N2CC3(CCN(C(C)=O)CC3)N(Cc3cccc(F)c3C)C2=O)ccc1-c1cn[nH]c1` [Example 87, 8-acetyl-3-(6-ethyl-5-(1H-pyrazol-4-yl)pyridin-2-yl)-1-(3-fluoro-2-methylbenzyl)-1,3,8-triazaspiro[4.5]decan-2-one], the figure is less than 3 nM. With `COc1cccc(NC2C(=O)N(c3ccc(-c4cn[nH]c4)cc3)CC23CN(C(C)=O)C3)c1` (stereo not shown) [Example 244, 6-(4-(1H-pyrazol-4-yl)phenyl)-2-acetyl-8-((3-methoxy-phenyl)amino)-2,6-diazaspiro [3.4]octan-7-one], the IC50 lay in the range of 250 to 3000 nM. As for `COc1cccc(CN2C(=O)N(c3ccc(-c4cn[nH]c4)cc3)CC23CCN(C(=O)OCCOCc2ccccc2)CC3)c1` [Example 101, 2-(benzyloxy)ethyl 3-(4-(1H-pyrazol-4-yl)phenyl)-1-(3-methoxybenzyl)-2-oxo-1,3,8-triazaspiro[4.5]decane-8-carboxylate], the figure is 3 to 30 nM; as for `COc1cccc(CN2C(=O)N(c3ccc(-c4cn[nH]c4)c(OC)n3)CC23CCN(C(=O)C(C)(C)O)CC3)c1` [Example 222, 8-(2-hydroxy-2-methylpropanoyl)-3-(6-methoxy-5-(1H-pyrazol-4-yl)pyridin-2-yl)-1-(3-methoxybenzyl)-1,3,8-triazaspiro[4.5]decan-2-one], less than 3 nM. For `O=C1N(c2ccc(-c3cn[nH]c3)cc2)CC2(CCOCC2)N1Cc1cc(F)cc(F)c1` [Example 24, 3-(4-(1H-pyrazol-4-yl)phenyl)-1-(3,5-difluorobenzyl)-8-oxa-1,3-diazaspiro[4.5]decan-2-one], the IC50 lay in the range of 3 to 30 nM. `COCC(=O)N1CCC2(CC1)CN(c1ccc(-c3cn[nH]c3)c(OC)n1)C(=O)N2Cc1cccc(F)c1C` [Example 226, 1-(3-fluoro-2-methylbenzyl)-3-(6-methoxy-5-(1H-pyrazol-4-yl)pyridin-2-yl)-8-(2-methoxyacetyl)-1,3,8-triazaspiro[4.5]decan-2-one] yielded an IC50 of less than 3 nM.

`CCc1nc(N2CC3(CCN(C(=O)OC)CC3)N(Cc3cc(F)cc(OC)c3)C2=O)ccc1-c1cn[nH]c1` [Example 107, methyl 3-(6-ethyl-5-(1H-pyrazol-4-yl)pyridin-2-yl)-1-(3-fluoro-5-methoxybenzyl)-2-oxo-1,3,8-triazaspiro[4.5]decane-8-carboxylate]: the IC50 is less than 3 nM. As for `COc1nc(N2CC3(CCN(C(=O)CC(C)c4ccccc4)CC3)N(Cc3cccc(F)c3C)C2=O)ccc1-c1cn[nH]c1` (stereo not shown) [Example 224, 1-(3-fluoro-2-methylbenzyl)-3-(6-methoxy-5-(1H-pyrazol-4-yl)pyridin-2-yl)-8-(3-phenylbutanoyl)-1,3,8-triazaspiro[4.5]decan-2-one], the figure is 3 to 30 nM; as for `COC(=O)N1CCC2(CC1)CN(c1ccc(-c3cn[nH]c3)c(OC)n1)C(=O)N2Cc1cccc(F)c1C` [Example 103, methyl 1-(3-fluoro-2-methylbenzyl)-3-(6-methoxy-5-(1H-pyrazol-4-yl)pyridin-2-yl)-2-oxo-1,3,8-triazaspiro[4.5]decane-8-carboxylate], less than 3 nM.

Molecule `COc1cccc(CN2C(=O)N(c3ncc(-c4cn[nH]c4)c(OC)n3)CC23CCN(C(=O)C(C)C)CC3)c1` [Example 215, 8-isobutyryl-3-(4-methoxy-5-(1H-pyrazol-4-yl)pyrimidin-2-yl)-1-(3-methoxybenzyl)-1,3,8-triazaspiro[4.5]decan-2-one] returned an IC50 of 30 to 250 nM.

`COc1cccc(NC2C(=O)N(c3ncc(-c4cn[nH]c4)c(OC)n3)CC23CCN(C(=O)OC(C)(C)C)CC3)c1` (stereo not shown) [Example 241, tert-butyl 2-(4-methoxy-5-(1H-pyrazol-4-yl)pyrimidin-2-yl)-4-((3-methoxyphenyl)amino)-3-oxo-2,8-diazaspiro[4.5]decane-8-carboxylate] returned an IC50 of 250 to 3000 nM. `CCc1nc(N2CC3(CCN(C(=O)OC)CC3)N(Cc3cccc(OC)c3)C2=O)ccc1-c1cn[nH]c1` [Example 105, methyl 3-(6-ethyl-5-(1H-pyrazol-4-yl)pyridin-2-yl)-1-(3-methoxybenzyl)-2-oxo-1,3,8-triazaspiro[4.5]decane-8-carboxylate] gave an IC50 of less than 3 nM. Consider `COc1cccc(CN2C(=O)N(c3ncc(-c4cn[nH]c4)c(OC)n3)CC23CCN(C(C)=O)CC3)c1` [Example 90, 8-acetyl-3-(4-methoxy-5-(1H-pyrazol-4-yl)pyrimidin-2-yl)-1-(3-methoxybenzyl)-1,3,8-triazaspiro[4.5]decan-2-one], for which the IC50 was 3 to 30 nM.
